Experimental data reported in publication PMC9268414, “Screening an In-House Isoquinoline Alkaloids Library for New Blockers of Voltage-Gated Na^+ Channels Using Voltage Sensor Fluorescent Probes: Hits and Biases” (Molecules, 2022).
Where two headings read alike, the source gives them in different places.

Tests used:
[1] = system: Na+ currents recorded in isolated cardiomyocytes; conditions: cited from earlier work
human NaV1.3 channel = human NaV1.3 channel (Homo sapiens, UniProt Q9NY46); experiment: ANG-2 intracellular Na+ fluorescent assay in HEK293-hNaV1.3 cells; format: cell-based; conditions: IA at 10 µM; BTX 3 µM; HEK293-hNaV1.3; read-out: Inhibition of BTX-induced [Na+]i elevation (ANG-2 signal)
human NaV1.3 channel, sequence (Q9NY46 whole entry): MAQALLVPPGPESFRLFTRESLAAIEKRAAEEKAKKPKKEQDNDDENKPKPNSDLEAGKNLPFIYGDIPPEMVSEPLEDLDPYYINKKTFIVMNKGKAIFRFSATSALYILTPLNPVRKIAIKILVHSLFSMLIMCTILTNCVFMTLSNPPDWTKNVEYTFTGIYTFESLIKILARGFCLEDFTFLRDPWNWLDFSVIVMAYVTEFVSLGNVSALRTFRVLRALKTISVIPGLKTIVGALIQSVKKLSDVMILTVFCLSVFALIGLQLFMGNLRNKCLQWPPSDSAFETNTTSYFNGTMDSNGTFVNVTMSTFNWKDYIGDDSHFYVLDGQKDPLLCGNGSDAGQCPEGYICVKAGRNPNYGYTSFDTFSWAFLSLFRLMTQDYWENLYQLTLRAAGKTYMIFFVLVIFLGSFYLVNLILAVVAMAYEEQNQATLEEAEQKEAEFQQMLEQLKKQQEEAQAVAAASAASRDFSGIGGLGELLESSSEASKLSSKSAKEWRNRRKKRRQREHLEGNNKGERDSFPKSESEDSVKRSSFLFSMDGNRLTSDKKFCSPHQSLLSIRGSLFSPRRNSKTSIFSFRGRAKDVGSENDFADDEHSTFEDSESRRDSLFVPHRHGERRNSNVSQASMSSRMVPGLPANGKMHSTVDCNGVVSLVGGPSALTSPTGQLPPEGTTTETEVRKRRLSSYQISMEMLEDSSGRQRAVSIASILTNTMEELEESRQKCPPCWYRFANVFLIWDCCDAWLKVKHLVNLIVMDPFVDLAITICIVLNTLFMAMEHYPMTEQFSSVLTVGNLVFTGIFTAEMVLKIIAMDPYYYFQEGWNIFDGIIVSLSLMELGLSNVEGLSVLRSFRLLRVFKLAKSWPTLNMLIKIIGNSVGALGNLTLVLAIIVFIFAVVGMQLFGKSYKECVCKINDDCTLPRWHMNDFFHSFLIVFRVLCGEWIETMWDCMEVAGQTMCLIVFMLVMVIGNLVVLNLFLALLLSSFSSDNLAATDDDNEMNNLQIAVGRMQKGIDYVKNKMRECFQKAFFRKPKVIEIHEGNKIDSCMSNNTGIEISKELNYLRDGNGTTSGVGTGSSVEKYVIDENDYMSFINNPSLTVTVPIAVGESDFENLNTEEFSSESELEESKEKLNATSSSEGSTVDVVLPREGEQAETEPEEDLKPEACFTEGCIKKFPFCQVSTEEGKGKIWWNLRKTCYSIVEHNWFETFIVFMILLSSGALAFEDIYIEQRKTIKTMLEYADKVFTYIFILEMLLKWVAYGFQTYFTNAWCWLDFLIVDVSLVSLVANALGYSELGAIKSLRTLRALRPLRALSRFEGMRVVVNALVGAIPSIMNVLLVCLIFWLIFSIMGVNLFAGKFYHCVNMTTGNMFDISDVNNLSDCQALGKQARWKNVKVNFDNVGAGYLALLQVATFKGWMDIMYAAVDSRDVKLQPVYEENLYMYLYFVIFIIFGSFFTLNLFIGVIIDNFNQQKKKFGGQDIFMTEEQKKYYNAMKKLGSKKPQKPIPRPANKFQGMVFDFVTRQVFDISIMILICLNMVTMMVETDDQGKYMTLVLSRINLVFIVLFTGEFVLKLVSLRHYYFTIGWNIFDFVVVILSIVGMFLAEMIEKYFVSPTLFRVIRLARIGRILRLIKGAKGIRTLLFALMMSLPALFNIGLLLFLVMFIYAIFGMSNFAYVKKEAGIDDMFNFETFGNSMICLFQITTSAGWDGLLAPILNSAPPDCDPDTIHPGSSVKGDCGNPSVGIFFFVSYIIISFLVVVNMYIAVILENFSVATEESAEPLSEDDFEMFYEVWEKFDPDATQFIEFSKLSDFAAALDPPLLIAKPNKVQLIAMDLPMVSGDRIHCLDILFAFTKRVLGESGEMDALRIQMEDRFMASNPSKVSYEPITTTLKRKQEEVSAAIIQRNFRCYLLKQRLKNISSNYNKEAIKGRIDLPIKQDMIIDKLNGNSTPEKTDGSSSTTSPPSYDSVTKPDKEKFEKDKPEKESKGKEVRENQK

[2] = system: NaV channels endogenously expressed in GH3b6 cells; experiment: FRET voltage sensor probe (VSP) assay of BTX-induced depolarization in GH3b6 cells; format: cell-based, rat; conditions: GH3b6 cells; for IC50: read-out: IC50 (µM), inhibition of BTX-evoked VSP signal
hNaV1.3 channel = target: T1, hNaV1.3 channel (Homo sapiens, UniProt Q9NY46); experiment: Automated patch-clamp, Na+ currents in HEK293-hNaV1.3 cells; format: cell-based
T1 construct: expressed in transfected cells
T1 sequence (Q9NY46 whole entry): as above
Procedure: (§1) GH3b6 cells are a subclone of the GH3 pituitary cell line and were a generous gift from Dr. Françoise Macari (IGF, Montpellier, France). GH3b6 cells were cultivated from passage 14 until passage 32 at 37 °C/5% CO2 in Dubelcco’s Modified Eagle Medium (DMEM)/F12 (Lonza, Basel, Switzerland), supplemented with 10% FBS (Lonza, Basel, Switzerland), 1 mM L-glutamine, and 1 mM penicillin and streptomycin solution. For the fluorescence assay, the GH3b6 cells were seeded in black-walled, clear-bottom, 96-well, tissue culture-treated, and sterile imaging plates (Corning Hazebrouck, France), at a density of 10,000 cells per well, and incubated for 24 h before starting the experiment. The human Nav1.3 (hNav1.3) channel-expressing cell line (HEK293) used in this work was a generous gift from Massimo Mantegazza (IPMC, Nice, France). HEK293-hNaV1.3 cells were cultivated from passage 20 until passage 35 at 37 °C/5% CO2 in a DMEM high glucose medium (4.5 g/l), supplemented with 10% FBS, pyruvate, L-glutamine, and penicillin and streptomycin solution, each one at 1 mM, completed with 800 µg/mL geneticin G418. For the fluorescence assays, the cells were plated at a density of 50,000 cells per well in black-walled, clear-bottom, 96-well plates and then cultured at 37 °C and 5% CO2 for 24 h before the experiments. HEK293 stably expressing hNaV1.2 and hNaV1.6 were cultivated in the same conditions mentioned above for the HEK293-hNaV1.3 cells. For the automated patch-clamp experiments, cells were passaged from 24 to 48 h prior to the experiment and replated in the appropriate quantity to reach 50–70% confluence. For electrophysiological recordings, cells were detached with trypsin-EDTA and diluted in a culture medium. Then, the cells were centrifuged at 800 rpm for 4 min and resuspended (~300,000 cells/mL) in a patch-clamp extracellular solution.
(§2) Whole-cell recordings were used to investigate the effects of oxostephanine, liriodenine, thalmiculine, bebeerine, and protopine on HEK293 cells stably expressing the hNav1.2, hNav1.3, and hNav1.6 channels. Automated patch-clamp recordings were performed using the SyncroPatch 384PE from Nanion (München, Germany). Chips with a single hole (n = 384, series resistance 3.93 ± 1.19 MΩ) were used for HEK293 cell recordings. Pulse generation and data collection were performed with the PatchControl384 v1.9.7 software (Nanion) and the Biomek interface (Beckman Coulter). Whole-cell recordings were conducted according to the recommended procedures of Nanion. The cells were stored in a cell hotel reservoir at 10 °C, with a shaking speed of 60 RPM. After initiating the experiment, cell catch, sealing, whole-cell formation, liquid application, recording, and data acquisition were all performed sequentially and automatically. The intracellular solution contained (in mM): 10 CsCl, 110 CsF, 10 NaCl, 10 EGTA, and 10 HEPES (pH 7.2, osmolarity 280 mOsm), and the extracellular solution contained (in mM): 60 NMDG, 80 NaCl, 4 KCl, 2 CaCl2, 1 MgCl2, 5 Glucose, and 10 HEPES (pH 7.4 (NaOH), osmolarity 280 ± 3 mOsm). Whole-cell experiments were performed at a holding potential of −100 mV at room temperature (18–22 °C). Currents were sampled at 20 kHz. For pharmacological assays, alkaloid solutions were prepared at 30 µM in the extracellular solution supplemented with 0.3% bovine serum albumin and distributed in 384-well compound plates according to a pre-established plate plan. This distribution within compound plates could not be randomized since it would then excessively complexify the methods of analyses. The working compound solution was diluted 3 times in the patch-clamp recording well by adding from 30 to 60 µL of the external solution to reach the final reported concentration and the test volume of 90 µL. The effects of IA (10 µM) or of BTX (1 µM) were measured at the end of a 10 min application time. Activation curves were built by depolarizations lasting for 2000 ms, from −130 mV to 40 mV, using 5 mV increment steps. […]

hNaV1.2 channel = target: T2, hNaV1.2 channel (Homo sapiens, UniProt Q99250); experiment: Automated patch-clamp, Na+ currents in HEK293-hNaV1.2 cells; format: cell-based; conditions: 10 µM
T2 construct: expressed in transfected cells
Procedure: as §1, §2

hNaV1.6 channel = target: T3, hNaV1.6 channel (Homo sapiens, UniProt Q9UQD0); experiment: Automated patch-clamp, Na+ currents in HEK293-hNaV1.6 cells; format: cell-based; conditions: 10 µM
T3 construct: expressed in transfected cells
T3 sequence (Q9UQD0 whole entry): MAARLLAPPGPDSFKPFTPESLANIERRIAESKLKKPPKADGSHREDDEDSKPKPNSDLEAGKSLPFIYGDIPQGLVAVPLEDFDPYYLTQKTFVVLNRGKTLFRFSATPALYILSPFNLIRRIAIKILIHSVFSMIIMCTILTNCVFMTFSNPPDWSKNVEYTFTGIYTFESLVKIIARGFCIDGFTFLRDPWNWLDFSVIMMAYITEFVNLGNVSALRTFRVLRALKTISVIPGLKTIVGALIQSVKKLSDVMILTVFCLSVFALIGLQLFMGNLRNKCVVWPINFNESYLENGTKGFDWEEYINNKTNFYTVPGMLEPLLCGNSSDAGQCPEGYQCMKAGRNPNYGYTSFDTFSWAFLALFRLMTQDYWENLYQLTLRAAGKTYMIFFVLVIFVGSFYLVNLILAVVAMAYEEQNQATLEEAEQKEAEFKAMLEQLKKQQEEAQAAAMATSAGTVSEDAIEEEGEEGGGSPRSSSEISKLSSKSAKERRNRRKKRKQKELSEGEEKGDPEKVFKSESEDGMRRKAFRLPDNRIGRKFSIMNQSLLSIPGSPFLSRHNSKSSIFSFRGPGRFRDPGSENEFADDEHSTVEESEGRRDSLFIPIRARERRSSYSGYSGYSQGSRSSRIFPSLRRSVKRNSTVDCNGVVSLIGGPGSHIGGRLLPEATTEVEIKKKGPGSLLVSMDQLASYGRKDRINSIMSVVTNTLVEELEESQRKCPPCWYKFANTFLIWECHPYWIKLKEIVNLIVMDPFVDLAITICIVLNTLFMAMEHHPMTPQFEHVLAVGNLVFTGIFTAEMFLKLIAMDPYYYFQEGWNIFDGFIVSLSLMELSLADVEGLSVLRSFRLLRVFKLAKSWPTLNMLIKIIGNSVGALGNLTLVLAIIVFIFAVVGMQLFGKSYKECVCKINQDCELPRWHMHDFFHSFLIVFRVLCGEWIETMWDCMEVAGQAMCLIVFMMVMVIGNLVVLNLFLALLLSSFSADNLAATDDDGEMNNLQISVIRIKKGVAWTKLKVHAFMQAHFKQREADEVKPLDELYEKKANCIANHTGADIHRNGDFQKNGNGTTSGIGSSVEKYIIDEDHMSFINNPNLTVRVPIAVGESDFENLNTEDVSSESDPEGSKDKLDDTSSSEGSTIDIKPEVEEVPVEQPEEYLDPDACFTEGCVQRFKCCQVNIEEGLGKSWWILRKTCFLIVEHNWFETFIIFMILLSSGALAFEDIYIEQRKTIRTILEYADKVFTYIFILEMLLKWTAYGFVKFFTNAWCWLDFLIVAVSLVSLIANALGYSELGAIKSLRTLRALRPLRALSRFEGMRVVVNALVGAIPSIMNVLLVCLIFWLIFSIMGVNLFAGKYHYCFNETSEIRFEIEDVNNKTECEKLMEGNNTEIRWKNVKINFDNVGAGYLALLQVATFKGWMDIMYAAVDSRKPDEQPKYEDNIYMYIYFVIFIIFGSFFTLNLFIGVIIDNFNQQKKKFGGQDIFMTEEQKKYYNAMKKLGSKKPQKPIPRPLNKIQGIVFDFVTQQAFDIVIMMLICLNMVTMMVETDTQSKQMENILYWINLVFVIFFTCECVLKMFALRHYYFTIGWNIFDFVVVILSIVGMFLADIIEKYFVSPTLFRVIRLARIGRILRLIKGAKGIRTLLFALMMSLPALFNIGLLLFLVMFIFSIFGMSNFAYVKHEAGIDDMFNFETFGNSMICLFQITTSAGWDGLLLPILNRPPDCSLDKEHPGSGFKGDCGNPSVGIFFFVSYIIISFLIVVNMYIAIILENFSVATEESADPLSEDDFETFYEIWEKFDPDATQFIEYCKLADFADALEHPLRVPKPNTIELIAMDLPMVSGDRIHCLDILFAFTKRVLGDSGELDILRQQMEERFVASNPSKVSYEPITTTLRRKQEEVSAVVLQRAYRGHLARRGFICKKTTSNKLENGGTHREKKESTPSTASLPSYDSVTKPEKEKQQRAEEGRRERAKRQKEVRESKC
Procedure: as §1, §2

[3] = 10 µM IA in the presence of 1 µM BTX

Question: Which “IC50, suppression of Na+ currents in isolated cardiomyocytes” value [1] does the source give for `O=C1c2ccccc2-c2c3c(cc4ccnc1c24)OCO3` [IA39, liriodenine] here?
Answer: micromolar range

Question: What about the inhibition at 10 µM (human NaV1.3 channel) of the same molecule?
Answer: 50 ± 10%

Question: What about the “Maximum of Inhibition of BTX-evoked VSP signal” value ([2]; BTX 1 µM, n = 6, % printed only) of the same molecule?
Answer: 83.78 ± 6.59%

Question: And the IC50 ([2]; BTX 1 µM, n = 6, listed as liriodenine)?
Answer: 5 to 6 µM

Question: And the IC50 ([2]; BTX 1 µM, n = 6)?
Answer: 5 ± 0.1 µM

Question: And the “Inhibitory Effects (%) on BTX-induced VSP signal (screening)” value ([2]; IA at 10–50 µg/mL co-incubated with 1 µM BTX)?
Answer: 99.1%

Question: What about the “Effect on V1/2 activation of hNaV1.3” value (hNaV1.3 channel; [3]) of the same molecule?
Answer: positively shifted

Question: What about the “Effect on current densities of hNaV1.3 at −60 mV” value (hNaV1.3 channel; [3]) of the same molecule?
Answer: significantly decreased

Question: And the “Effect on slow-down of inactivation induced by BTX (AUC)” value (hNaV1.3 channel; 10 µM IA, BTX 1 µM, hNaV1.3)?
Answer: significantly decreased

Question: And the “Effect on Na+ currents elicited by hNaV1.3” value (hNaV1.3 channel; 10 µM, HEK293-hNaV1.3, without BTX)?
Answer: no effects

Question: What about the “Change in V1/2 of activation and inactivation vs control” value (“Change” below) (hNaV1.3 channel; hNaV1.3, 10 µM) of the same molecule?
Answer: ns

Question: And the “Effect on Na+ currents elicited by hNaV1.2” value (hNaV1.2 channel; HEK293-hNaV1.2)?
Answer: no effects

Question: What about the “Change” value (hNaV1.2 channel; hNaV1.2) of the same molecule?
Answer: ns

Question: And the “Effect on Na+ currents elicited by hNaV1.6” value (hNaV1.6 channel; HEK293-hNaV1.6)?
Answer: no effects

Question: And the “Change” value (hNaV1.6 channel; hNaV1.6)?
Answer: ns
